Tested on: Plantago lanceolate (ribwort plantain) and Poa annua (annual meadow grass)
Assay: Pot test with solid (powdered) alkali silicates or mixtures: weed coverage rate, degree of efficiency = weed penetration resistance (Example 2)
Assay type: in vivo
Settings: in the dosage used in the mixtures
Procedure: The experiment was carried out in the laboratory in plant pots with a volume of 450 cm^3. The application area was 78.5 cm^2. The soil substrate was a sifted land soil. Humus (humic soil) was used as a nutrient source for the desired plant. […] On top of the humic soil, 250 g of sifted land soil was placed. Both soil substrates were free of weed growth prior to treatment. Both soils contained minimal residues of endemic weed seeds or inflowing seeds. These present seeds were not sufficient for efficient weed growth. […] For this purpose, the weeds were worked into the top soil layer in a depth of 2-4 mm. Different alkali silicate powders were used in this experiment, which are specified in detail below. Hardeners and/or performance modifiers were added, if applicable. The solid formulations were mixed and then applied homogeneously to the soil surface. […] The coverage rate was determined by manual visual assessment of the plant pots at the specified times, as described in example 1. […] From this in turn the degree of efficiency according to Abbott was calculated as follows: Degree of efficiency=[coverage rate control(day x)−coverage rate product(day x)]/coverage rate control(day x)*100 Furthermore, the quality of the formed layer was observed regularly with respect to crack formation. […]

CC(=O)[O-].CC(=O)[O-].[Ca+2] [calcium acetate]
weed penetration resistance of the performance modifier alone: An effect is observed only at the beginning of the experiment

From US20240090506A1, “SURFACE MODIFICATION TO REGULATE PLANT GROWTH” (BIND-X GMBH, priority 2020, published 2024)
